In patent publication US20210015819A1, “METHODS FOR TREATMENT OF CANCERS WITH EGFR ACTIVATING MUTATIONS” (Board of Regents, The University of Texas System, priority 2018, published 2021):
Where two headings read alike, the source gives them in different places.

Test system: YUL0019 PR8 cells
Test: Drug sensitivity of poziotinib resistant YUL0019 cells (FIG. 8)
Assay type: cell-based

COc1cc(Nc2ncc3c(n2)-c2ccc(Cl)cc2C(c2c(F)cccc2OC)=NC3)ccc1C(=O)O [MLN8237 (Alisertib)] was tested, and the “Sensitivity of YUL0019 PR8 (poziotinib resistant) cells” value (shortened to “Sensitivity of YUL0019 PR8”) (listed as Alisertib) was “sensitive” and the “Sensitivity of YUL0019 PR8” value (listed as alisertib) was “highly sensitive”.

In the case of CC[C@@H]1C(=O)N(C)c2cnc(Nc3ccc(C(=O)N[C@H]4CC[C@H](N5CCN(CC6CC6)CC5)CC4)cc3OC)nc2N1C(C)C [BI6727 (Volasertib)], the “Sensitivity of YUL0019 PR8” value is reported as “highly sensitive”.

CN1CC[C@H](c2c(O)cc(O)c3c(=O)cc(-c4ccccc4Cl)oc23)[C@H](O)C1 [Alvocidib] was tested, and the “Sensitivity of YUL0019 PR8” value was “highly sensitive”.

With Cc1csc(-c2nnc(Nc3ccc(Oc4ncccc4-c4ccnc(N)n4)cc3)c3ccccc23)c1 [AMG 900] the “Sensitivity of YUL0019 PR8” value (listed as AMG900) was “sensitive” and the “Sensitivity of YUL0019 PR8” value (listed as AMG-900) was “highly sensitive”.

In the case of Cc1ccc(C(=O)N(CCCN)[C@@H](c2nc3cc(Cl)ccc3c(=O)n2Cc2ccccc2)C(C)C)cc1 [Ispinesib], the “Sensitivity of YUL0019 PR8” value is reported as “highly sensitive” and the “Sensitivity of YUL0019 PR8” value (listed as ispinasib) is reported as “sensitive”.

C=CC(=O)N1CCC(Oc2cc3c(Nc4ccc(Cl)c(Cl)c4F)ncnc3cc2OC)CC1 [poziotinib, 1-[4-[4-(3,4-dichloro-2-fluoroanilino)-7-methoxyquinazolin-6-yl]oxypiperidin-1-yl]prop-2-en-1-one] was tested, and the “Sensitivity of YUL0019 PR8” value was “resistant”.
